The text below walks through data of ChEMBL document CHEMBL3243978, “2-(Substituted phenyl)oxazolo[4,5-b]pyridines and 2-(substituted phenyl)oxazolo[5,4-b]pyridines as nonacidic antiinflammatory agents” (J Med Chem, 1978).

For data set [1], the species on record is Rattus norvegicus. The experiment in a line: animal or person. The format is functional.
Description: Antiinflammatory activity in rat assessed as inhibition of carrageenan-induced foot edema at 30 mg/kg
Data set [2] is described as follows: Acute toxicity in po dosed mouse. Conditions: in vivo.
Data set [3] has as its system Rattus norvegicus. Briefly: Antiinflammatory activity in rat assessed as inhibition of carrageenan-induced foot edema. The format is functional.
Data set [4] is filed under the species Rattus norvegicus. Briefly: Antiarthritic activity in rat assessed as reduction in adjuvant-induced arthritic pain. The format is functional.
In data set [5] the test system is Rattus norvegicus. Briefly: Toxicity in rat assessed as indomethacin-induced intestinal perforation at 400 mg/kg after 3 days. The format is organism-based. Also on record: dose 400 mg/kg. Conditions: in vivo, 72 h.
The species named for data set [6] is Mus musculus.
Data set [7] has as its target T1, Prostaglandin E synthase (Homo sapiens) (UniProt O14684).
T1 sequence (whole entry): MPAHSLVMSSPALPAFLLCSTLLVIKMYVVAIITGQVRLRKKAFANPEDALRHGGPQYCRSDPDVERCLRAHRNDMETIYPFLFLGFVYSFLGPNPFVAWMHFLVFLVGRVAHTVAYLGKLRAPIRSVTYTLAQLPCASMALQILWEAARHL
Description: Inhibition of prostaglandin synthetase (unknown origin)

Data set [8] concerns Rattus norvegicus. Briefly: Toxicity in rat assessed as indomethacin-induced intestinal perforation at 256 mg/kg after 3 days. The format is organism-based. Particulars: in vivo, 72 h. Also on record: dose 256 mg/kg.
The subject of data set [9] is Rattus norvegicus. Briefly: Toxicity in rat assessed as indomethacin-induced intestinal perforation at 1024 mg/kg after 3 days. The format is organism-based. Also on record: dose 1024 mg/kg. Particulars: in vivo, 72 h.

≈ marks a conversion by molar mass, not a printed value.

As to `Fc1ccc(-c2nc3cccnc3o2)cc1`, in data set [1], the inhibition in vivo at 30 mg/kg was 27%.

The compound `Brc1ccccc1-c1nc2ncccc2o1` yielded an inhibition in vivo at 30 mg/kg in [1] of 24%.

Compound `O=[N+]([O-])c1ccc(-c2nc3cccnc3o2)cc1` registered an inhibition in vivo at 30 mg/kg in data set [1] of 5%.

Take `Clc1cccc(Cl)c1-c1nc2ncccc2o1`: the inhibition in vivo at 30 mg/kg in [1] stood at 14%.

Compound `Clc1cccc(-c2nc3cccnc3o2)c1` yielded an inhibition in vivo at 30 mg/kg in data set [1] of 8%.

`FC(F)(F)c1cccc(-c2nc3cccnc3o2)c1` registered an inhibition in vivo at 30 mg/kg in data set [1] of 7%.

`Fc1cc(Cl)ccc1-c1nc2ncccc2o1` showed an inhibition in vivo at 30 mg/kg in data set [1] of 19%.

Take `CCCCC1C(=O)N(c2ccccc2)N(c2ccccc2)C1=O` [PHENYLBUTAZONE]: the LD50 in data set [2] stood at 555 mg/kg. The ED50 was 28 mg/kg in data set [3], 14 mg/kg in [4], 4.3 mg in [6] and 3 mg/L (≈ 9.73 µM) in data set [7]. For the same compound, in data set [5], the Activity entry is “Non-toxic”.

Regarding `Fc1ccccc1-c1nc2ncccc2o1`, in data set [1], the inhibition in vivo at 30 mg/kg amounted to 64%. The same compound displayed an LD50 in data set [2] of 556 mg/kg. Further, the ED50 in data set [3] was 21 mg/kg; in data set [4], 23 mg/kg; in [6] it was 6 mg; in data set [7], 3 mg/L (≈ 14 µM). Also, in data set [8], the Activity result is given as “Non-toxic”.

Turning to `CC(=O)Oc1ccccc1C(=O)O` [ASPIRIN], the LD50 in data set [2] came to 1220 mg/kg. The ED50 in [3] is 89 mg/kg; in data set [4] it was 67 mg/kg; in data set [6], 7 mg; in data set [7] it was 13.4 mg/L (≈ 74.4 µM). In addition, the Activity result in data set [9] is reported as “Non-toxic”.

`Cc1ccccc1-c1nc2cccnc2o1`: in [1], the inhibition in vivo at 30 mg/kg came out at 3%.

`N#Cc1cccc(C#N)c1-c1nc2ncccc2o1` displayed an inhibition in vivo at 30 mg/kg in data set [1] of 19%.

In data set [1], `Fc1ccc(-c2nc3ncccc3o2)c(F)c1` returned an inhibition in vivo at 30 mg/kg of 23%.

In turn, `COc1ccccc1-c1nc2ncccc2o1` registered an inhibition in vivo at 30 mg/kg in data set [1] of 9%.

As to `Cc1ccc(-c2nc3ncccc3o2)cc1`, at 30 mg/kg the inhibition in vivo in [1] was 5%.

`c1ccc(-c2nc3ncccc3o2)cc1`: in data set [1], the inhibition in vivo at 30 mg/kg was 41%.

On to `COc1ccc(-c2nc3cccnc3o2)cc1`, for which the inhibition in vivo at 30 mg/kg in data set [1] came to 29%.

In the case of `Clc1ccc(-c2nc3ncccc3o2)cc1`, in data set [1], the inhibition in vivo at 30 mg/kg came to 24%.

In the case of `Nc1ccccc1-c1nc2cccnc2o1`, 30 mg/kg produced 13% inhibition in vivo in data set [1].

`N#Cc1ccccc1-c1nc2ncccc2o1`: testing at 30 mg/kg in [1] gave an inhibition in vivo of 62%. Besides, the LD50 in data set [2] is 1220 mg/kg. Besides, the ED50 in [3] turned out to be 17 mg/kg; in [4], 20 mg/kg; in data set [6], 2 mg; in data set [7] it was 14 mg/L (≈ 63.3 µM).

In turn, `COc1ccc(C#N)c(-c2nc3ncccc3o2)c1` showed an inhibition in vivo at 30 mg/kg in data set [1] of 3%.

`COc1ccc(Br)c(-c2nc3ncccc3o2)c1` displayed an inhibition in vivo at 30 mg/kg in data set [1] of 8%.

`CSc1ccccc1-c1nc2ncccc2o1` displayed an inhibition in vivo at 30 mg/kg in data set [1] of 21%.

`Clc1ccc(-c2nc3cccnc3o2)cc1` gave an inhibition in vivo at 30 mg/kg in [1] of 14%.

As to `Cc1ccccc1-c1nc2ncccc2o1`, in [1], at 30 mg/kg the inhibition in vivo was 0%.

In [1], `O=[N+]([O-])c1ccccc1-c1nc2cccnc2o1` registered an inhibition in vivo at 30 mg/kg of 57%.

In data set [1], `Fc1ccc(F)c(-c2nc3ncccc3o2)c1` had an inhibition in vivo at 30 mg/kg of 18%.

As to `Fc1cccc(F)c1-c1nc2ncccc2o1`, the inhibition in vivo at 30 mg/kg in [1] came to 66%. The same compound had an LD50 in [2] of 709 mg/kg. Also, the ED50 in data set [3] stood at 22 mg/kg; in data set [4] it was 7.4 mg/kg; in [6], 2.4 mg; in data set [7], 15 mg/L (≈ 64.6 µM).

The compound `COc1cccc(-c2nc3ncccc3o2)c1` yielded an inhibition in vivo at 30 mg/kg in data set [1] of 14%.

Regarding `Clc1ccccc1-c1nc2cccnc2o1`, the inhibition in vivo at 30 mg/kg in data set [1] stood at 50%.

In turn, `N#Cc1ccccc1-c1nc2cccnc2o1` showed an inhibition in vivo at 30 mg/kg in [1] of 61%. Besides, in [2], the LD50 is 1500 mg/kg. Further, the ED50 in data set [3] was 11 mg/kg; in [4] it was 44 mg/kg; in [6], 3 mg; in data set [7], 16 mg/L (≈ 72.3 µM). Further, the Activity entry in data set [8] is on record as “Non-toxic”.

With `COc1ccc2c(c1)c(CC(=O)O)c(C)n2C(=O)c1ccc(Cl)cc1` [INDOMETHACIN], the LD50 in data set [2] amounted to 50 mg/kg. The ED50 turned out to be 2.7 mg/kg in data set [3], 0.27 mg/kg in [4], 2.7 mg in data set [6] and 0.1 mg/L (≈ 0.279 µM) in data set [7].

`Cc1cccc(-c2nc3cccnc3o2)c1` had an inhibition in vivo at 30 mg/kg in data set [1] of 14%.

In data set [1], `Brc1cccc(-c2nc3ncccc3o2)c1` registered an inhibition in vivo at 30 mg/kg of 23%.

In data set [1], `Brc1ccccc1-c1nc2cccnc2o1` registered an inhibition in vivo at 30 mg/kg of 31%.

As to `FC(F)(F)Oc1ccc(-c2nc3ncccc3o2)cc1`, at 30 mg/kg the inhibition in vivo in data set [1] was 0%.

`N#Cc1ccc(-c2nc3cccnc3o2)cc1`: the inhibition in vivo at 30 mg/kg in data set [1] came out at 17%.

Take `COc1cccc(-c2nc3cccnc3o2)c1`: the inhibition in vivo at 30 mg/kg in data set [1] was 0%.

`FC(F)(F)c1ccccc1-c1nc2ncccc2o1`: in data set [1], the inhibition in vivo at 30 mg/kg was found to be 19%.

In [1], `Cc1ccc(-c2nc3cccnc3o2)cc1` gave an inhibition in vivo at 30 mg/kg of 0%.

`N#Cc1cccc(F)c1-c1nc2ncccc2o1` returned an inhibition in vivo at 30 mg/kg in data set [1] of 50%.

In data set [1], `Clc1ccccc1-c1nc2ncccc2o1` came in with an inhibition in vivo at 30 mg/kg of 38%.

As to `c1ccc(-c2nc3cccnc3o2)cc1`, 30 mg/kg produced 55% inhibition in vivo in [1].

The compound `COc1ccc(-c2nc3ncccc3o2)cc1` came in with an inhibition in vivo at 30 mg/kg in data set [1] of 14%.

In [1], `Fc1cccc(F)c1-c1nc2cccnc2o1` returned an inhibition in vivo at 30 mg/kg of 50%.

With `O=[N+]([O-])c1cccc(-c2nc3ncccc3o2)c1`, the inhibition in vivo at 30 mg/kg in data set [1] came to 21%.

In data set [1], `Fc1ccc(-c2nc3ncccc3o2)cc1` gave an inhibition in vivo at 30 mg/kg of 28%.

With `CC(C)Cc1ccc(C(C)C(=O)O)cc1` (stereo unspecified) [IBUPROFEN], the LD50 in data set [2] worked out at 1370 mg/kg. Further, the ED50 in data set [3] worked out at 15 mg/kg; in [4], 27 mg/kg; in data set [6], 5 mg; in data set [7] it was 0.4 mg/L (≈ 1.94 µM).

In data set [1], `N#Cc1cccc(-c2nc3ncccc3o2)c1` showed an inhibition in vivo at 30 mg/kg of 21%.

`Fc1cccc(-c2nc3cccnc3o2)c1` came in with an inhibition in vivo at 30 mg/kg in [1] of 35%.

In data set [1], `Clc1cccc(-c2nc3ncccc3o2)c1` yielded an inhibition in vivo at 30 mg/kg of 32%.
